Test results published in patent US20040086536A1, “Therapeutic agents and treatment kits for hypertrophic pyloric stenosis” (priority 2002, published 2004).
Structures can show the parent of a compound that is named as a salt.

Tests used:
[1] = tested on: hypertrophic pyloric stenosis; conditions: cited from earlier work
[2] = tested on: hypertrophic pyloric stenosis; assay: Treatment of infantile patients with hypertrophic pyloric stenosis (disappearance of vomiting, hospitalization); conditions: atropine sulfate 0.1 mg/kg/day iv.
Protocol: In the present treating examples, a solution for intravenous injection of atropine sulfate was used as the anticholinergic agent and a nitroglycerin patch was used as the NO donor.
After confirming that the pH and electrolytes in the blood restore in the normal ranges in individual infantile patients, a daily dosage of atropine sulfate (0.1 mg/kg/day) was divided by the number of milk feeding and the divided dosage of atropine sulfate was administered intravenously 10 minutes before each milk feeding over 3 minutes or longer. Except in the cases where abnormally strong side effects were produced, the dosage amounts for subsequent intravenous injections were not changed principally. […] The minimum dosage amount is 0.04 mg/kg/day.
In parallel with the atropine sulfate intravenous injection, a nitroglycerin transdermal patch (Millisrol Tape (registered trademark)): 5 mg/patch: Nippon Kayaku Co., Ltd.; or Minitro Tape (registered trademark): 5 mg/patch: Nisshin-Kyorin Pharmaceutical Co., Ltd.) was used. […]
To prevent the occurrence of aspiration pneumonia induced by vomiting and the induction of contraction of gastric smooth muscles and pyloric sphincters, isotonic drinking solution was fed orally as the infantile patient wanted until the vomiting subsided. […] The body weight and the daily amount of milk intake were measured every day. […]

CN1[C@@H]2CC[C@H]1C[C@@H](OC(=O)C(CO)c1ccccc1)C2 (some centres unmarked) [atropine sulfate (iv.), atropine sulfate]
time for which the spasm disappears after the administration ([1]; atropine sulfate therapy, contraction of the pyloric muscle often reappears afterward): 20 to 30 min
effectiveness of treatment ([1]; intravenous injection, needs long term hospitalization): high
effectiveness rate of treatment ([1]; oral administration): less than 50%
Duration of vomiting (onset of action) after the initiation of the treatment [2]: 5 ± 2 days
duration of hospitalization [2]: 9 ± 2 days
